In US12448358B2, “Inhibitors of protein arginine deiminase 1 and methods of preparation and use thereof” (University of Massachusetts, priority 2019, dated 2025):

Assays:
PAD1 [1] = target: T1, PAD1 (Homo sapiens, UniProt Q9ULC6); assay: Limit of detection of PAD1 labelling in HEK293TPAD1 cells by probe; assay type: cell-based; settings: 5 μM probe, 3 h; calculated from PAD1 content 0.06% of the total protein
T1 construct: made in house
T1 sequence (Q9ULC6 1-663): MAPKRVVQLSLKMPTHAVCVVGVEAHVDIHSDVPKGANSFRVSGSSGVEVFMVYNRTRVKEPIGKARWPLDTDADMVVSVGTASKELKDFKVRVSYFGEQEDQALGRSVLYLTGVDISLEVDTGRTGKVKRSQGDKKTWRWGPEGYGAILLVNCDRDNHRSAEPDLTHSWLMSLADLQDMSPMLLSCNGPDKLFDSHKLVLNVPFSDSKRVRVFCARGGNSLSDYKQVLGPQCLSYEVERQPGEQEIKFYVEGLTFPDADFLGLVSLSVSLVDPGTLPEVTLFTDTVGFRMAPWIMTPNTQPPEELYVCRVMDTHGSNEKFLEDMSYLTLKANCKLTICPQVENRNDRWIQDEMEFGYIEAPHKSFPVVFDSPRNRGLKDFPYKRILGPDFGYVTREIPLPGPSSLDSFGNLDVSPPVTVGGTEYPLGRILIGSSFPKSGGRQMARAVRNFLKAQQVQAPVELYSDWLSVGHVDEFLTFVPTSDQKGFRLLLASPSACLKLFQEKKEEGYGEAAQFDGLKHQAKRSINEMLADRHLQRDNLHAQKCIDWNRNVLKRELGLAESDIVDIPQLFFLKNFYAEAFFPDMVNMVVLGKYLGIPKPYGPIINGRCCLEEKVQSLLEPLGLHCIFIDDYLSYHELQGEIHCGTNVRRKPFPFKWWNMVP
Protocol: FIG. 16. (A) Time-dependent labelling of PAD1 in HEK293TPAD1 cells by 21. HEK293TPAD1 cells were treated with 21 (5 μM) in serum-free DMEM for various times. After the treatment, cells were harvested and flash-frozen in liquid nitrogen. Cell lysates were treated with TAMRA-N3, TCEP, TBTA and CuSO4 for 2 h at room temperature. Time-dependent labelling of PAD1 by 21 was recorded on a Typhoon scanner. (B) Limit of detection of PAD1 in HEK293TPAD1 cells by 21. For this study, cells were treated with 5 μM of 21 in serum-free DMEM for 3 h and decreasing amounts (indicated by total protein content) of lysates were clicked with TAMRA-N3 in the presence of TCEP, TBTA and freshly prepared CuSO4. […] F stands for fluorograph.
Dose-dependent Labelling of PAD1 in HEK293TPAD1 cells with 21. HEK293TPAD1 cells were plated in 6-well plates at a density of ˜1×10^6 cells/well and were allowed to grow in DMEM (supplemented with 10% heat-inactivated fetal bovine serum, 100 units/mL penicillin, 100 μg/mL streptomycin and 0.15 mg/mL hygromycin B) for 12 h. […] Soluble proteins in the lysate were quantified by DC-assay (Bio-Rad). […] Protein bands were visualized by recording in-gel fluorescence using a typhoon scanner (approximate excitation/emission maxima ˜546/579, respectively). […]

PAD1 [2] = target: T1, PAD1; assay: Target engagement assay: labelling of PAD1 in HEK293TPAD1 cells with 21 in the presence of inhibitor; assay type: cell-based; settings: 5 μM of 21, 3 h, read-out: EC50 of inhibition of labelling of PAD1 by 21
Protocol: Target Engagement Assay—Labelling of PAD1 in HEK293TPAD1 cells with 21 in the presence of 1. This study followed a similar procedure to that described for the dose-dependent labelling of PAD1 in HEK293TPAD1 cells with 21. Briefly, HEK293TPAD1 cells were treated with 1 mM CaCl2, 5 μM ionomycin, 5 μM of 21, and increasing concentrations (0-50 μM) of 1 in serum-free DMEM for 3 h. Cells were scraped, harvested by centrifugation at 3,000 rpm for 5 min and resuspended in 1×PBS. Lysis was carried out by sonicating the cells with a probe sonicator and lysates were clicked with TAMRA-N3 in the presence of TCEP, TBTA and CuSO4 as described above. Protein bands were separated by SDS-PAGE and were visualized by recording in-gel fluorescence. […] All the experiments were performed at least in duplicate.

LOD of PAD1 in HEK293TPAD1 cells (PAD1 [1]) [pmol] | EC50 (PAD1 [2]) [µM] | Compound
72 | – | C#Cc1c(I)cc(C(=O)N[C@@H](CCCNC(=N)CF)c2nc3ccccc3[nH]2)c(O)c1I [Compound 21]
– | 12.7 | N=C(CF)NCCC[C@H](NC(=O)c1cc(I)cc(I)c1O)c1nc2ccccc2[nH]1 [Compound 1]
